Results from US11952368B2, “FAPI dimer compound, FAPI dimer-based positron emission tomography (PET) imaging agent for tumor diagnosis, and preparation method and use thereof” (XIAMEN UNIVERSITY, priority 2021, dated 2024).

System: FAP-expressing CAFs
Assay: Cellular uptake and cellular uptake blockade in CAFs
Type: cell-based, human
Description: A human HCC cell line Huh7 was purchased from the National Experimental Cell Resource Sharing Platform, China. CAFs were extracted from a surgical specimen of an HCC patient.
After the CAFs were verified as cells with high FAP expression, the next experiment was conducted. […]
FAP-expressing CAFs were inoculated in a 24-well plate and cultivated with a 10% (volume fraction) FBS-containing 1640 medium for 48 h before the experiment until a cell density was about 80% to 90%; the medium was changed to an FBS-free 1640 medium; and the ^68Ga-2PEG(3)-FAPI-dimer, ^68Ga-FAPI-46, or ^68Ga-2PEG(3)-FAPI-dimer+11.3 nmol FAPI-46 (for the blocking experiment) was added to the 24-well plate and incubated, with predetermined intervals of 10 min, 30 min, 60 min, 90 min, and 120 min. […] A half-inhibitory concentration (IC50s) was calculated by using GraphPad Prism to fit data through nonlinear regression. […]

CN(CCCN1CCN(C(=O)COCCOCCOCCNC(=O)CCC(=O)N[C@@H](CCCCNC(=O)CN2CCN(CC(=O)[O-])CCN(CC(=O)[O-])CCN(CC(=O)[O-])CC2)C(=O)NCCOCCOCCOCC(=O)N2CCN(CCCN(C)c3ccc4nccc(C(=O)NCC(=O)N5CC(F)(F)C[C@H]5C#N)c4c3)CC2)CC1)c1ccc2nccc(C(=O)NCC(=O)N3CC(F)(F)C[C@H]3C#N)c2c1.[68Ga+3] [^68Ga-2PEG(3)-FAPI-dimer]
cell uptake blockade: binding to FAP blocked by FAPI-46 precursor (+11.3 nmol FAPI-46): can significantly block
absorption value relative to ^68Ga-FAPI-46 monomer in CAFs (incubation 10 min to 120 min): about twice
